{"source": "paper PMC13089524", "about": "“Development of SYK NanoBRET cellular target engagement assays for gain–of–function variants” (Frontiers in chemical biology, 2024)", "key": {"[1]": {"target": "T1, SYK (Homo sapiens, UniProt P43405)", "T1 construct": "purchased Eurofins DiscoverX (contract assay service)", "assay": "Eurofins DiscoverX SYK enzymatic radiometric assay", "type": "biochemical", "excerpt": "Eurofins kinase enzymatic radiometric assays were executed at the Km value for ATP in dose–response (9-pt curve) format for SYK, included in Table 1 as enzymatic IC50 values."}, "[2]": {"target": "T2, SYK(WT)-NL (Homo sapiens, UniProt P43405)", "T2 construct": "SYK tracers enable BRET with full-length SYK(WT) after digitonin permeabilization; host or cells: HEK293", "assay": "NanoBRET assay in digitonin permeabilized HEK293 cells, SYK(WT)-NL", "type": "cell-based", "description": "We performed NanoBRET tracer optimization to determine if the SYK tracers could effectively generate a BRET signal. […] To enable the NanoBRET assay using tracer 8 with cells permeabilized by digitonin, a tracer dose–response study was performed for each SYK(GoF) variant and SYK(WT) (Figure 3A), followed by tracer titration experiments (Figure 3B; Supplementary Figure S3). […] Initially, we determined the EC50 of tracer 8 for each SYK(GoF) variant and SYK(WT). […] Plates were incubated for 25 min at room temperature if digitonin was added or for 2 h at 37°C in 5% CO2 for the intact cell NanoBRET assay. […] For intact live cells in a 96-well plate, the 3X stock solution was prepared with 30 μL of NanoBRET NanoGlo substrate, 10 μL of extracellular NanoLuc inhibitor, and 4,960 μL of Opti-MEM without phenol red. For digitonin permeabilized live cells in a 96-well plate, the 3X stock solution was prepared with 30 μL of NanoBRET NanoGlo substrate and 4,970 μL of Opti-MEM without phenol red. Raw milliBRET units (mBU) were read on a GloMax Discover system (Promega) with a donor emission wavelength of 450 nm and an acceptor emission wavelength of 600 nm. mBU were calculated by dividing the acceptor emission values (600 nm) by the donor emission values (450 nm). For NanoBRET studies with SYK, background corrected mBU were calculated by subtracting the no tracer wells from the tracer-containing wells and multiplying by 1,000.\nHEK293 cells were transfected with constructs of SYK(WT) or SYK(KD) tagged with NL on the C- or N-terminus and SYK GoF variants tagged with NL on the C-terminus. Tracer 8 (20X) was prepared from a 400 μM stock solution in DMSO with tracer dilution buffer (Promega, #N291B) and 20% DMSO, with a final assay plate concentration of 1% DMSO. 5 μL of 8 (20X) was added to each well, with exception of the no tracer control wells, with final plate concentrations of 0.5, 1, and 2 μM. 10 μL of digitonin (Fisher, 10X, 500 μg/mL) was added to specific wells to permeabilize the cells. The 10X digitonin stock was prepared by diluting a 40X DMSO solution of digitonin with room temperature Opti-MEM without phenol red, for a final assay plate concentration of 1% DMSO. SYK inhibitor stock solutions of MRL-SYKi (10X) were prepared from 10 mM DMSO stock solutions with room temperature Opti-MEM without phenol red, for final assay plate concentrations of 10 μM. Plates were incubated for 25 min at room temperature if digitonin was added or for 2 h at 37°C in 5% CO2 for the intact cell NanoBRET assay. Two technical replicates were plotted in a bar chart with the standard deviation represented as error bars on Graphpad Prism."}, "[3]": {"target": "T3, SYK(S550Y)-NL (Homo sapiens, UniProt P43405, S550Y)", "T3 construct": "host or cells: HEK293", "assay": "NanoBRET assay in digitonin permeabilized HEK293 cells, SYK(S550Y)-NL", "type": "cell-based", "conditions": "relative to MRL-SYKi (20 μM) treated cells, single experiment, read-out: EC50 of tracer, SYK(variant)-NL S550Y", "description": "(§1) We performed NanoBRET tracer optimization to determine if the SYK tracers could effectively generate a BRET signal. […] To enable the NanoBRET assay using tracer 8 with cells permeabilized by digitonin, a tracer dose–response study was performed for each SYK(GoF) variant and SYK(WT) (Figure 3A), followed by tracer titration experiments (Figure 3B; Supplementary Figure S3). […] Initially, we determined the EC50 of tracer 8 for each SYK(GoF) variant and SYK(WT). […] Plates were incubated for 25 min at room temperature if digitonin was added or for 2 h at 37°C in 5% CO2 for the intact cell NanoBRET assay. […] For intact live cells in a 96-well plate, the 3X stock solution was prepared with 30 μL of NanoBRET NanoGlo substrate, 10 μL of extracellular NanoLuc inhibitor, and 4,960 μL of Opti-MEM without phenol red. […] Raw milliBRET units (mBU) were read on a GloMax Discover system (Promega) with a donor emission wavelength of 450 nm and an acceptor emission wavelength of 600 nm. mBU were calculated by dividing the acceptor emission values (600 nm) by the donor emission values (450 nm). For NanoBRET studies with SYK, background corrected mBU were calculated by subtracting the no tracer wells from the tracer-containing wells and multiplying by 1,000. […]"}, "[4]": {"target": "T4, SYK(S550F)-NL (Homo sapiens, UniProt P43405, S550F)", "T4 construct": "host or cells: HEK293", "assay": "NanoBRET assay in digitonin permeabilized HEK293 cells, SYK(S550F)-NL", "type": "cell-based", "conditions": "relative to MRL-SYKi (20 μM) treated cells, single experiment, read-out: EC50 of tracer, SYK(variant)-NL S550F", "description": "as §1"}, "[5]": {"target": "T5, SYK(P342T)-NL (Homo sapiens, UniProt P43405, P342T)", "T5 construct": "host or cells: HEK293", "assay": "NanoBRET assay in digitonin permeabilized HEK293 cells, SYK(P342T)-NL", "type": "cell-based", "conditions": "relative to MRL-SYKi (20 μM) treated cells, single experiment, read-out: EC50 of tracer, SYK(variant)-NL P342T", "description": "as §1"}, "[6]": {"target": "T6, SYK(A353T)-NL (Homo sapiens, UniProt P43405, A353T)", "T6 construct": "host or cells: HEK293", "assay": "NanoBRET assay in digitonin permeabilized HEK293 cells, SYK(A353T)-NL", "type": "cell-based", "conditions": "relative to MRL-SYKi (20 μM) treated cells, single experiment, read-out: EC50 of tracer, SYK(variant)-NL A353T", "description": "as §1"}, "[7]": {"target": "T7, SYK(M450I)-NL (Homo sapiens, UniProt P43405, M450I)", "T7 construct": "host or cells: HEK293", "assay": "NanoBRET assay in digitonin permeabilized HEK293 cells, SYK(M450I)-NL", "type": "cell-based", "conditions": "relative to MRL-SYKi (20 μM) treated cells, single experiment, read-out: EC50 of tracer, SYK(variant)-NL M450I", "description": "as §1"}, "[8]": {"target": "T3, SYK(S550Y)-NL", "assay": "NanoBRET cellular target engagement assay in intact live HEK293 cells, SYK(S550Y)-NL", "type": "cell-based", "conditions": "intact cells, ± 10 μM MRL-SYKi, single experiment; read-out: cellular EC50 of the tracer, SYK(S550Y)-NL", "description": "(§2) NL orientations used in the respective assays are indicated. […] Plates were incubated for 25 min at room temperature if digitonin was added or for 2 h at 37°C in 5% CO2 for the intact cell NanoBRET assay. […] For intact live cells in a 96-well plate, the 3X stock solution was prepared with 30 μL of NanoBRET NanoGlo substrate, 10 μL of extracellular NanoLuc inhibitor, and 4,960 μL of Opti-MEM without phenol red. For digitonin permeabilized live cells in a 96-well plate, the 3X stock solution was prepared with 30 μL of NanoBRET NanoGlo substrate and 4,970 μL of Opti-MEM without phenol red. Raw milliBRET units (mBU) were read on a GloMax Discover system (Promega) with a donor emission wavelength of 450 nm and an acceptor emission wavelength of 600 nm. mBU were calculated by dividing the acceptor emission values (600 nm) by the donor emission values (450 nm). For NanoBRET studies with SYK, background corrected mBU were calculated by subtracting the no tracer wells from the tracer-containing wells and multiplying by 1,000.\n(§3) MRL-SYKi was used to compete away the NanoBRET signal produced with tracer 8. […] Tracer 8 was prepared in DMSO and DMEM without phenol red in 11-point dose-response format with 3 μM as the top concentration, with a final assay plate concentration of 1% DMSO. 10X stock solutions of MRL-SYKi were prepared from 10 mM DMSO stock solution with room temperature Opti-MEM without phenol red, for final assay plate concentrations of 10 μM. 10 μL of 8 (10X) was added to each well, with the exception of the no tracer control wells, and 10 μL of 10X solutions of MRL-SYKi was added to wells for tracer competition. One biological replicate was plotted in GraphPad Prism with [inhibitor] vs response (three parameters).\n(§4) MRL-SYKi was tested in 11-point dose–response format with a top concentration of 10 μM. […] The final assay plate concentrations included 1% DMSO. 5 μL of 8 (20X) was added to each well, except the no tracer control wells, and 10 μL of 10X threefold diluted solutions of MRL-SYKi was added to wells. Two biological replicates were plotted in GraphPad Prism with log[inhibitor] vs response (three parameters) with the error bars indicating standard deviation.\n(§5) Compounds were tested in 11-point dose–response format with a top concentration of 10 μM. Data are reported as IC50 ± standard error mean (SEM). One biological replicate was plotted in GraphPad Prism with log[inhibitor] vs response (three parameters), the three IC50’s were averaged and the SEM was calculated."}, "[9]": {"target": "T4, SYK(S550F)-NL", "assay": "NanoBRET cellular target engagement assay in intact live HEK293 cells, SYK(S550F)-NL", "type": "cell-based", "description": "as §2, §3, §4, §5"}, "[10]": {"target": "T5, SYK(P342T)-NL", "assay": "NanoBRET cellular target engagement assay in intact live HEK293 cells, SYK(P342T)-NL", "type": "cell-based", "description": "as §2, §3, §4, §5"}, "[11]": {"target": "T8, SYK(WT) (Homo sapiens, UniProt P43405)", "T8 construct": "Full-length human SYK(WT) DNA was custom synthesized (GenScript); 6His (N, cleaved yes); GST (N, cleaved yes); made in house; host or cells: Sf9 insect cells (baculovirus, pFastbac1)", "assay": "PhosphoSens SOX peptide kinase activity assay, SYK(WT)", "type": "biochemical", "conditions": "dose-response, purified protein", "from_the_text": "Full-length human SYK(WT) DNA was custom synthesized (GenScript) as a codon optimized form for expression in Sf9 cells. N-terminal 6His and GST tags were introduced, followed by a TEV protease cleavage site, and cloned into pFastbac1. SYK(S550F) and SYK(P342T) were generated by site-directed mutagenesis of SYK(WT) using the NEB Q5 site directed mutagenesis kit. Plasmids were transformed into E. coli DH10Bac for bacmid generation. Recombinant bacmid DNA was used to transfect Sf9 cells to generate viral stocks. For large-scale protein production, 2 L of Sf9 cells at 2 × 10^6 cells/ml were infected with a P2 virus stock and allowed to incubate with shaking for 3 days at 27°C. Harvested cells were lysed in 200 mL lysis buffer containing 50 mM HEPES (pH 7.5), 500 mM NaCl, 10 mM imidazole, 10% glycerol, 1 mM TCEP. […]\nSYK kinase activity was evaluated using a continuous kinase assay using a PhosphoSens (AssayQuant) SOX peptide, according to the protocol provided, with modifications. […] Fluorescence readings were taken at 30-s intervals for a duration ranging from 30 min to an hour, using a PheraStar FX device set to kinetic mode, employing an appropriate optics module (FI 350 460). The data was represented as a plot of relative fluorescence over time, deducting the fluorescence of control reactions (which lacked kinase) from the fluorescence recorded after introducing the kinase. […]"}, "[12]": {"assay": "Solubility of tracer in NanoBRET assay medium", "type": "physicochemical", "conditions": "dose-response top concentration 3 μM"}, "[13]": {"test_system": "pSYK(Y525/526) in SW480 cells stably expressing SYK(S550Y)", "conditions": "ref Wang et al. (2021); cited from earlier work"}, "[14]": {"target": "TNK1", "conditions": "only off-target kinase bound; ref Sharman et al., 2015; Cooper et al., 2023; cited from earlier work"}, "[15]": {"test_system": "JAK1", "conditions": "ref Ma et al., 2015; Guo et al., 2017; cited from earlier work"}}, "data": [{"smiles": "Cc1cc(Nc2nccc(C)n2)cc(-c2cnc([C@@]3(O)CC[C@H](C(=O)NCCCNC(=O)CCc4ccc5n4[B-](F)(F)[N+]4=C(c6ccc[nH]6)C=CC4=C5)C(C)(C)C3)s2)c1", "note": "[Tracer 8]", "values": [{"measurement": "IC50", "setting": "[1]; Km value for ATP, 9-pt dose-response", "value": 110, "unit": "nM"}, {"measurement": "decrease in potency compared to the parent inhibitor MRL-SYKi", "setting": "[1]; ratio of enzymatic IC50", "value": 3.6, "unit": "fold"}, {"measurement": "BRET signal (background subtracted)", "setting": "[2]; C-terminal NL fusion, tracer 0.5, 1, 2 μM", "value": "approximately 15 mBU"}, {"measurement": "EC50", "setting": "[2]; relative to MRL-SYKi (20 μM) treated cells, single experiment, read-out: EC50 of tracer, SYK(variant)-NL WT", "value": 39, "unit": "nM"}, {"measurement": "EC50", "setting": "[3]", "value": 8, "unit": "nM"}, {"measurement": "EC50", "setting": "[4]", "value": 7, "unit": "nM"}, {"measurement": "EC50", "setting": "[5]", "value": 9, "unit": "nM"}, {"measurement": "EC50", "setting": "[6]", "value": 24, "unit": "nM"}, {"measurement": "EC50", "setting": "[7]", "value": 65, "unit": "nM"}, {"measurement": "EC50", "setting": "[8]", "value": 159, "unit": "nM"}, {"measurement": "EC50", "setting": "[9]; intact cells, ± 10 μM MRL-SYKi, single experiment, read-out: cellular EC50 of the tracer, SYK(S550F)-NL", "value": 273, "unit": "nM"}, {"measurement": "EC50", "setting": "[10]; intact cells, ± 10 μM MRL-SYKi, single experiment, read-out: cellular EC50 of the tracer, SYK(P342T)-NL", "value": 280, "unit": "nM"}, {"measurement": "effect on SYK(WT) catalytic activity", "setting": "[11]", "value": "inhibits SYK(WT) catalytic activity"}, {"measurement": "solubility", "setting": "[12]", "value": "solubility issues at >3 μM"}]}, {"smiles": "COc1cc(Nc2ncc(F)c(Nc3ccc4c(n3)NC(=O)C(C)(C)O4)n2)cc(OC)c1OC", "note": "[Tracer R406]", "values": [{"measurement": "S550Y phosphorylation levels", "setting": "[13]", "value": "decrease S550Y phosphorylation levels"}]}, {"smiles": "c1cn2cc(-c3ccc4cn[nH]c4c3)nc(Nc3ccc(N4CCOCC4)cc3)c2n1", "note": "[Entospletinib]", "values": [{"measurement": "Kd", "setting": "[14]", "value": "< 100", "unit": "nM"}]}, {"smiles": "CCS(=O)(=O)N1CCN(c2ccc(Nc3ncc(C(N)=O)c(NC4CC4)n3)cc2)CC1", "note": "[Cerdulatinib]", "values": [{"measurement": "IC50", "setting": "[9]; intact HEK293 cells, 125 nM tracer 8, average of triplicate ± SEM, read-out: SYK(S550F) IC50", "value": "170 ± 21", "unit": "nM"}, {"measurement": "IC50", "setting": "[10]; intact HEK293 cells, 125 nM tracer 8, average of triplicate ± SEM, read-out: SYK(P342T) IC50", "value": "360 ± 36", "unit": "nM"}, {"measurement": "IC50", "setting": "[15]", "value": 12, "unit": "nM"}]}]}
